Assay results: ChEMBL document CHEMBL4000241, “Investigation of the anti-angiogenesis effects induced by deoxypodophyllotoxin-5-FU conjugate C069 against HUVE cells” (Bioorg Med Chem Lett, 2017)
Activity calls are given as the source filed them. The rule behind the calls is not given here.

What was measured:
Chorioallantoic membrane = assay: Antiangiogenic activity in chicken fertilized egg chorioallantoic membrane assessed as reduction in branching of blood vessels after 48 hrs; type: functional, tissue-based; conditions: Gallus gallus
HUVEC [1] = assay: Antimigratory activity in HUVEC assessed as reduction in wound-healing at 0.1 to 0.3 uM after 12 hrs by inverted phase contrast microscopy; type: functional, cell-based; conditions: Homo sapiens
HUVEC [2] = assay: Downregulation of MMP-2 expression in HUVEC at 0.2 to 0.5 uM after 24 hrs by Western blot analysis; type: functional, cell-based; conditions: Homo sapiens
Homo sapiens = species on record: Homo sapiens; assay: Inhibition of Akt phosphorylation in HUVEC after 24 hrs by Western blot analysis
HUVEC [3] = assay: Downregulation of MMP-9 expression in HUVEC at 0.2 to 0.5 uM after 24 hrs by Western blot analysis; type: functional, cell-based; conditions: Homo sapiens
HUVEC [4] = assay: Antiangiogenic activity in HUVEC assessed as inhibition of formation of tubular structures after 6 hrs by inverted phase contrast microscopy based matrigel assay; type: functional, cell-based; conditions: Homo sapiens
HUVEC [5] = assay: Antiproliferative activity against HUVEC at 0.1 to 0.3 uM after 6 hrs by MTT assay; type: functional, cell-based; conditions: Homo sapiens
[6] = biological target: T1, Catenin beta-1 (Homo sapiens) (UniProt P35222); assay: Inhibition of beta-catenin phosphorylation in HUVEC after 24 hrs by Western blot analysis
T1 sequence (whole entry): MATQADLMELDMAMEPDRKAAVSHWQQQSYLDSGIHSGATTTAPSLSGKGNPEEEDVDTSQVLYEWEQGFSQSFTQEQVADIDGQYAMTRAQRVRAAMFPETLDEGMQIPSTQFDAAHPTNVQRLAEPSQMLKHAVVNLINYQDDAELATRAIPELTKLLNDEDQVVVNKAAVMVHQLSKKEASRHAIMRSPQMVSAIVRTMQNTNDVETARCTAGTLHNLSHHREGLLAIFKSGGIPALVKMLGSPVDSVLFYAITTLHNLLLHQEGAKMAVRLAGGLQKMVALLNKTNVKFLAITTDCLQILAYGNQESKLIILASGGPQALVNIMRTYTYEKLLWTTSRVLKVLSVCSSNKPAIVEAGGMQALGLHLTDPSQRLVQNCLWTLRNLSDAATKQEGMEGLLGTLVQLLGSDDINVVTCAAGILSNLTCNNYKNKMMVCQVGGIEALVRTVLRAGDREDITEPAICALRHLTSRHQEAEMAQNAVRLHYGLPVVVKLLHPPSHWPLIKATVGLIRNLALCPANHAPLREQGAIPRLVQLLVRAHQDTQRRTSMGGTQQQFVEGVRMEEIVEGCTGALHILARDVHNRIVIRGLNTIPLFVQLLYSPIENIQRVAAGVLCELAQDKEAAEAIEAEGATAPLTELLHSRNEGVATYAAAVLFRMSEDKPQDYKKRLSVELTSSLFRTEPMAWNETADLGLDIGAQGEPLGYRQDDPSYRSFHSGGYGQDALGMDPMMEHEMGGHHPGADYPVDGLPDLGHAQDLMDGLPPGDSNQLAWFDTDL

WI-38 [7] = assay: Antiproliferative activity against human WI38 cells at 20 to 100 uM after 12 to 48 hrs by MTT assay; type: cell-based; conditions: wi-38, 100 µM
HUVEC [8] = assay: Vascular disrupting activity in HUVEC assessed as disruption of preformed tube like structure after 6 hrs by inverted phase contrast microscopy based matrigel assay; type: functional, cell-based; conditions: Homo sapiens
WI-38 [9] = assay: Antiproliferative activity against human WI38 cells at 30 uM after 12 to 48 hrs by MTT assay; type: cell-based; conditions: wi-38, 30 µM

Row | SMILES | Activity (Chorioallantoic membrane) | Activity (HUVEC [1]) | Activity (HUVEC [2]) | inhibition (Homo sapiens) | Activity (HUVEC [3]) | Activity (HUVEC [4]) | Activity (HUVEC [5]) | inhibition [6] | Activity (WI-38 [7]) | Activity (HUVEC [8]) | Activity (WI-38 [9])
1 | COc1cc([C@@H]2c3cc4c(cc3C[C@H]3COC(=O)[C@@H]32)OCO4)cc(OC)c1OC(=O)CCC(=O)NCCCCCCNC(=O)Cn1cc(F)c(=O)[nH]c1=O | Dose-dependent effect | Active | Active | Dose-dependent effect | Active | Dose-dependent effect | Active | Dose-dependent effect | Non-Toxic | Dose-dependent effect | 
2 | COc1cc([C@@H]2c3cc4c(cc3[C@@H](O[C@@H]3O[C@@H]5CO[C@@H](C)O[C@H]5[C@H](O)[C@H]3O)[C@H]3COC(=O)[C@H]23)OCO4)cc(OC)c1O [ETOPOSIDE] |  |  |  |  |  |  |  |  |  |  | Non-Toxic
